Test results as given in US6926905B2, “Liposomak compositions and methods of preparation” (Yissum Research Development Company of the Hebrew …, priority 1998, dated 2005).
Where a name gives a salt, the structure may show the parent alone.

Tests used:
Male Swiss-Webster mice [1] = experiment: Analgesic efficacy: sensory block, vocalization response to cutaneous electrical stimulation after subcutaneous injection; type: in vivo; details: 8 mice
Procedure: All experiments were approved by the Institutional Animal Care and Use Committee. Male Swiss-Webster mice weighing 26+3 g (mean+SD) were used. Animals had free access to food and water, and were maintained on 12-hour dark-light cycle. Prior to testing, the hair overlying the abdomen was shaved. Analgesia was assessed using response to cutaneous electrical stimulation. A current generator (model S48, Grass Instruments, Quincy, Mass.) coupled to a constant current unit (model PSIU6F, Grass Instruments, Quincy, Mass.) was used. The current was delivered to the skin surface by touching it gently with two electrodes fashioned from #25 g needles. The vocalization threshold (the current required to produce a vocalization response) was assessed prior to injection of study solutions. […] To determine analgesic duration, mice were injected with liposomal BUP compositions having 0.5 wt % and 3.5 wt % bupivacaine, respectively, formed by dilution (as necessary of formulation 3, above. Free BUP (0.5%), hyperosmotic saline (580 mM), or drug-free liposomes were used as controls. For all groups, […] of test solution was injected subcutaneously using a #25 g needle in 8 mice. After injection, sensory block was assessed at 5, 15, 30 minutes and then at 1, 1.5, 2, 3, 4.5, 6, 9, 12, 14, 16, 17, and 19 hours. Failure to vocalize in response to stimulation with threshold current was taken as analgesia. […]

Male Swiss-Webster mice [2] = details: mouse, in vivo
[3] = Tissue BUP post-administration: drug remaining at the site of injection (HPLC of excised tissue); type: in vivo; details: four hours after injection, mice, subcutaneous
Procedure: In a separate group of mice, the amount of drug remaining at the site of injection after administration of 0.5% and 3.5% liposomal BUP (formulation 3) or 0.5% free BUP was determined. Three animals were sacrificed at 0, 0.25, 0.5, 1, 2, 4, and 8 hours after injections of all drug formulations and also at 16, 24, 48 and 96 hours after injection of the liposomal formulations. After sacrifice, a 1-cm2 circular tissue section including the entire area of injection, and extending to the peritoneum, was excised. The tissue was homogenized in 1 ml of isopropanol for 1 min, and then centrifuged at 16,000×G (Eppendorf Centrifuge 5417C, Engelsdorf, Germany). The supernatant was diluted 1:100 in isopropanol, and BUP concentration was determined using HPLC. In vivo release kinetics were done in triplicate. Results are presented in FIG. 2, where the absolute amounts remaining are expressed as mean±SD.

Structure (SMILES): CCCCN1CCCCC1C(=O)Nc1c(C)cccc1C (centres unmarked) [0.5% free BUP, Bupivacaine hydrochloride]
- time at which analgesia was exhibited (Male Swiss-Webster mice [1]): 30 min
- time at which analgesia was not detected (regressed in all animals) (Male Swiss-Webster mice [1]): 2 h
- systemic toxic effects (Male Swiss-Webster mice [2]): produced toxicity
- amount remaining at the site [3]: 8 mg
- injected dose remaining at the site [3]: 1%
